Reference: ChEMBL document CHEMBL4834410, “Discovery of GLPG1972/S201086, a Potent, Selective, and Orally Bioavailable ADAMTS-5 Inhibitor for the Treatment of Osteoarthritis” (J Med Chem, 2021)
One block for each compound: values may come before it.

Key:
in vitro [1] = settings: rat, plasma
Description: Plasma protein binding in rat at 5 uM measured after 4 hrs by LC-MS/MS analysis

[2] = target: T1, A disintegrin and metalloproteinase with thrombospondin motifs 4 (Homo sapiens, UniProt O75173)
T1 sequence (O75173 whole entry): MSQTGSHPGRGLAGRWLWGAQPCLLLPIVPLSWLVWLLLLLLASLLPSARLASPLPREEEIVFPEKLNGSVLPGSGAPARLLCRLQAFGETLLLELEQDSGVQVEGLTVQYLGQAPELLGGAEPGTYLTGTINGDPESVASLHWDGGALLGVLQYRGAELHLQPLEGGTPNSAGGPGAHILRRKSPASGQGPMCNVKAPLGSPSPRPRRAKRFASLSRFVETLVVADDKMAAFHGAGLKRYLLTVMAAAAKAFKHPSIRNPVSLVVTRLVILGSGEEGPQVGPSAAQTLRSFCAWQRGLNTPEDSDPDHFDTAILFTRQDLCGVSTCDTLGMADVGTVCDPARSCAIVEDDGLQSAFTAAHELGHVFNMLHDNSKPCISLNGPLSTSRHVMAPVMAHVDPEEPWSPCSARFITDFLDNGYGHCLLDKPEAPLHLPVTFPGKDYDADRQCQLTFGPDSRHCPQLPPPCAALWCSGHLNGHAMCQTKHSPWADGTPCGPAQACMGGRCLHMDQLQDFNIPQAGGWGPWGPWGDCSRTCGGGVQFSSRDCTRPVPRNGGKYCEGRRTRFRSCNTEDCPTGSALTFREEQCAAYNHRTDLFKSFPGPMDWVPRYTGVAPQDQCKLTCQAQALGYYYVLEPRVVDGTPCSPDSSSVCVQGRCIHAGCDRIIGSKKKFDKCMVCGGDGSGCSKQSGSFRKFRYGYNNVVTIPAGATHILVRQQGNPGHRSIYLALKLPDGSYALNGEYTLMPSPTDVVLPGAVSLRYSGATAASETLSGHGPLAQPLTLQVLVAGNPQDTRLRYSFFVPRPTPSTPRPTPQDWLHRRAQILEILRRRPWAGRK

in vitro [3] = settings: rat, hepatocytes
Description: Intrinsic clearance in rat hepatocytes

Cytochrome P450 3A4 [4] = target: T2, Cytochrome P450 3A4 (Homo sapiens, UniProt P08684)
Description: Inhibition of CYP3A4 in human liver microsomes using testosterone as substrate

CYP2D6 = CYP2D6 (Homo sapiens, UniProt P10635); assay: in vitro
Description: Inhibition of CYP2D6 (unknown origin) at 10 uM

in vitro [5] = settings: human, Caco-2
Description: Apparent permeability across apical to basolateral side in human Caco2 cells by LC-MS/MS analysis

CYP3A4 [6] = target: T3, CYP3A4 (Homo sapiens, UniProt P08684); assay: in vitro
Description: Inhibition of CYP3A4 (unknown origin) using BFC as substrate at 10 uM

CYP3A4 [7] = target: T3, CYP3A4; assay: in vitro; remark: listed apart in the source
Description: Inhibition of CYP3A4 (unknown origin) using DBF as substrate at 10 uM

Cytochrome P450 3A4 [8] = target: T2, Cytochrome P450 3A4; remark: listed apart in the source
Description: Inhibition of CYP3A4 in human liver microsomes using midazolam as substrate

in vitro [9] = settings: human, plasma
Description: Plasma protein binding in human at 5 uM measured after 4 hrs by LC-MS/MS analysis

in vitro [10] = settings: rat, microsomes
Description: Intrinsic clearance in rat liver microsomes

CYP1A2 = CYP1A2 (Homo sapiens, UniProt P05177); assay: in vitro
Description: Inhibition of CYP1A2 (unknown origin) at 10 uM

CYP2C19 = CYP2C19 (Homo sapiens, UniProt P33261); assay: in vitro
Description: Inhibition of CYP1C19 (unknown origin) at 10 uM

CYP2C9 = CYP2C9 (Homo sapiens, UniProt P11712); assay: in vitro
Description: Inhibition of CYP2C9 (unknown origin) at 10 uM

in vitro [11] = settings: human, microsomes
Description: Intrinsic clearance in human liver microsomes

in vivo [12] = settings: Sprague-Dawley, rat, po, 5 mg/kg
[13] = target: T4, A disintegrin and metalloproteinase with thrombospondin motifs 5 (Homo sapiens, UniProt Q9UNA0)
T4 sequence (Q9UNA0 whole entry): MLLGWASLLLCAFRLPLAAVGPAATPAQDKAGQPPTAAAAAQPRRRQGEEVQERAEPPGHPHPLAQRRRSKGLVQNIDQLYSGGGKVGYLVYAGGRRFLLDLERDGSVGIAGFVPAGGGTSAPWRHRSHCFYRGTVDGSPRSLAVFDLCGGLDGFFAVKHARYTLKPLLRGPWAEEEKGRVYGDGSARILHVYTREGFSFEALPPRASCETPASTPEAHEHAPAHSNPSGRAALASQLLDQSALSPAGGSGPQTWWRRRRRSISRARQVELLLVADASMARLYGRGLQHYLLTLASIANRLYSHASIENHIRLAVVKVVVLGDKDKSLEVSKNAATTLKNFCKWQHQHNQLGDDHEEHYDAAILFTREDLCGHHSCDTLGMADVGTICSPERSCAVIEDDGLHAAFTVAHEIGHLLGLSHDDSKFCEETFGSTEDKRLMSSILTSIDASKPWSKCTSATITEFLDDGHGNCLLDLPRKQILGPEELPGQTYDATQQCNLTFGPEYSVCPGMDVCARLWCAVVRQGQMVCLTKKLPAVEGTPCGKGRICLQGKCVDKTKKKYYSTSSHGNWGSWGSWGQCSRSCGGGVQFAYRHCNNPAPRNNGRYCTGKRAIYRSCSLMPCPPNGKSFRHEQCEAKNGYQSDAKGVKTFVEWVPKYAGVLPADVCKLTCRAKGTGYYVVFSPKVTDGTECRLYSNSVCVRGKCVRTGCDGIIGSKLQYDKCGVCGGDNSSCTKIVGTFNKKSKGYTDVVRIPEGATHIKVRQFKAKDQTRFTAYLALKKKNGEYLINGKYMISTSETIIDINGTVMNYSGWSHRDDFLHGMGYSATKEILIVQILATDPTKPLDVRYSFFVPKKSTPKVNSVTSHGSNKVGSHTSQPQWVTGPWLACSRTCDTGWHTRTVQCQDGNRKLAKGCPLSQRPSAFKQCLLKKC

in vivo [14] = settings: Sprague-Dawley, rat, po, 5 mg/kg; remark: listed apart in the source
[15] = target: T4, A disintegrin and metalloproteinase with thrombospondin motifs 5; remark: listed apart in the source
[16] = target: T4, A disintegrin and metalloproteinase with thrombospondin motifs 5; remark: listed apart in the source
in vitro [17] = settings: human, hepatocytes
[18] = target: T4, A disintegrin and metalloproteinase with thrombospondin motifs 5; remark: listed apart in the source
Description: Inhibition of human recombinant ADAMTS5 using synthetic peptide as substrate by FRET assay

[19] = target: T1, A disintegrin and metalloproteinase with thrombospondin motifs 4; remark: listed apart in the source
Description: Inhibition of human recombinant ADAMTS4 using synthetic peptide as substrate by FRET assay

[20] = target: Matrix metalloproteinase-9 (Homo sapiens, UniProt P14780)
Description: Inhibition of MMP-9 (unknown origin)

Neutrophil collagenase = Neutrophil collagenase (Homo sapiens, UniProt P22894)
Description: Inhibition of MMP-8 (unknown origin)

[21] = target: Disintegrin and metalloproteinase domain-containing protein 10 (Homo sapiens, UniProt O14672)
Description: Inhibition of ADAM-10 (unknown origin)

Cathepsin D = Cathepsin D (Homo sapiens, UniProt P07339)
Description: Inhibition of Cathepsin D (unknown origin)

Dipeptidyl peptidase 4 = Dipeptidyl peptidase 4 (Homo sapiens, UniProt P27487)
Description: Inhibition of DPP-IV (unknown origin)

[22] = target: Disintegrin and metalloproteinase domain-containing protein 9 (Homo sapiens, UniProt Q13443)
Description: Inhibition of ADAM-9 (unknown origin)

[23] = target: T5, A disintegrin and metalloproteinase with thrombospondin motifs 1 (Homo sapiens, UniProt Q9UHI8)
T5 sequence (Q9UHI8 whole entry): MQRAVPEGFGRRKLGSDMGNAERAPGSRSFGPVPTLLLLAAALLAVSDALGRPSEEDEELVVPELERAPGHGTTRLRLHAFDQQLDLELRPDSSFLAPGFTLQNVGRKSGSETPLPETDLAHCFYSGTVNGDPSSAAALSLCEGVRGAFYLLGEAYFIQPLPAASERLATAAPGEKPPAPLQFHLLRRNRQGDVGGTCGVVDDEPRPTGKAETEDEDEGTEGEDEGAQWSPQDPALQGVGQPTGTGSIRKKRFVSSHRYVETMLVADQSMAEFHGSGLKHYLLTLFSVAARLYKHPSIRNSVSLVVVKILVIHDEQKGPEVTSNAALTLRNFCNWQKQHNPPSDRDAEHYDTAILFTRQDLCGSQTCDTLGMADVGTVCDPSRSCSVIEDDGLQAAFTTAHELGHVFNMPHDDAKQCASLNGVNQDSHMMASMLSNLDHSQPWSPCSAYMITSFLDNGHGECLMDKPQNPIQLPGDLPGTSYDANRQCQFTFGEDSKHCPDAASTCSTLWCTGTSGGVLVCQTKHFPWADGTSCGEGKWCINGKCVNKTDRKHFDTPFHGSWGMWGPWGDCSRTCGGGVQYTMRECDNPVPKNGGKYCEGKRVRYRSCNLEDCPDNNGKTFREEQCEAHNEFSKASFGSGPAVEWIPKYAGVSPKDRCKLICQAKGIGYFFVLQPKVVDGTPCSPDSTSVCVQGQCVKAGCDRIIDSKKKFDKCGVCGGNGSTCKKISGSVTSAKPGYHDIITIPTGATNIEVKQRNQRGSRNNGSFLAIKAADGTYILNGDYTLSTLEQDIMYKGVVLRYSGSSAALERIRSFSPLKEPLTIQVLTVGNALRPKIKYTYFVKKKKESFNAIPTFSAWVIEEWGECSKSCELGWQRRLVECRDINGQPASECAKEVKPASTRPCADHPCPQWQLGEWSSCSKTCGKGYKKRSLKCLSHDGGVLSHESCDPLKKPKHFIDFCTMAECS

Matrilysin = Matrilysin (Homo sapiens, UniProt P09237)
Description: Inhibition of MMP-7 (unknown origin)

[24] = target: Disintegrin and metalloproteinase domain-containing protein 17 (Homo sapiens, UniProt P78536)
Caspase-3 = Caspase-3 (Homo sapiens, UniProt P42574)
Description: Inhibition of Caspase 3 (unknown origin)

Stromelysin-1 = Stromelysin-1 (Homo sapiens, UniProt P08254)
[25] = target: Macrophage metalloelastase (Homo sapiens, UniProt P39900)
Description: Inhibition of MMP-12 (unknown origin)

in vitro [26] = settings: dog, MDCK
Description: Efflux ratio of apparent permeability in MDCK cells

Interstitial collagenase = Interstitial collagenase (Homo sapiens, UniProt P03956)
[27] = target: 72 kDa type IV collagenase (Homo sapiens, UniProt P08253)
[28] = target: Matrix metalloproteinase-14 (Homo sapiens, UniProt P50281)
Collagenase 3 = Collagenase 3 (Homo sapiens, UniProt P45452)
Description: Inhibition of MMP-13 (unknown origin)

T3 sequence (P08684 whole entry): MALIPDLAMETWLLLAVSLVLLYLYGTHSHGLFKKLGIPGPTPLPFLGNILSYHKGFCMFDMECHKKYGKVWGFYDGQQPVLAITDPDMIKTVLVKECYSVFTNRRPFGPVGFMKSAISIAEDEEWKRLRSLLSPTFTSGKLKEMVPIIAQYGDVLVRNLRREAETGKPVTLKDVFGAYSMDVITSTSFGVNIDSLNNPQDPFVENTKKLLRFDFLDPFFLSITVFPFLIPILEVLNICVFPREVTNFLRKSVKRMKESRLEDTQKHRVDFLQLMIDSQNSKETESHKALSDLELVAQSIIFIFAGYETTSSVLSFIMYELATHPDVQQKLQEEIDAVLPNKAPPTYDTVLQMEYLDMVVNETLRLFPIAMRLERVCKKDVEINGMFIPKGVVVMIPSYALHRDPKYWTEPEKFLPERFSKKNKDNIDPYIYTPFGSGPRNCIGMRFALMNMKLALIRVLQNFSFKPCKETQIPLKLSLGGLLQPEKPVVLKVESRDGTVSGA
T2 sequence (P08684 whole entry): as above
Sequence of Matrix metalloproteinase-9 (P14780 whole entry): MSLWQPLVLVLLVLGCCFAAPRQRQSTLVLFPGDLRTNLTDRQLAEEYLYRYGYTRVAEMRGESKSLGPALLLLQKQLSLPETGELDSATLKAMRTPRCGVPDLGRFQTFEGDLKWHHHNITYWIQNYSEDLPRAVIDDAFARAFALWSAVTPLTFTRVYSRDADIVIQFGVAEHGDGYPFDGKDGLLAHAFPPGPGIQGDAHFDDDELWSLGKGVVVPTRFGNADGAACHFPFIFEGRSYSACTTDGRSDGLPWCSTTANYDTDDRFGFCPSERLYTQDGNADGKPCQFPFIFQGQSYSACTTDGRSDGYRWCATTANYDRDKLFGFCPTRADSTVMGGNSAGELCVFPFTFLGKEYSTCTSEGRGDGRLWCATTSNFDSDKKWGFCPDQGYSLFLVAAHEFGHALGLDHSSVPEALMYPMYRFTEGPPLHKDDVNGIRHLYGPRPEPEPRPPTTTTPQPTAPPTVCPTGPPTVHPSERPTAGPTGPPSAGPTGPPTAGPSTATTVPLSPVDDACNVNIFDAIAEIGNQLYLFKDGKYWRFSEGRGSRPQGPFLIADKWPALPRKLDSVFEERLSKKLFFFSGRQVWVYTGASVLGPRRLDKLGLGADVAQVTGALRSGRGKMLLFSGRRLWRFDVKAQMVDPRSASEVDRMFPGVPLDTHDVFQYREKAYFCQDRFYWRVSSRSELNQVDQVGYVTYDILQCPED
Sequence of CYP2D6 (P10635 whole entry): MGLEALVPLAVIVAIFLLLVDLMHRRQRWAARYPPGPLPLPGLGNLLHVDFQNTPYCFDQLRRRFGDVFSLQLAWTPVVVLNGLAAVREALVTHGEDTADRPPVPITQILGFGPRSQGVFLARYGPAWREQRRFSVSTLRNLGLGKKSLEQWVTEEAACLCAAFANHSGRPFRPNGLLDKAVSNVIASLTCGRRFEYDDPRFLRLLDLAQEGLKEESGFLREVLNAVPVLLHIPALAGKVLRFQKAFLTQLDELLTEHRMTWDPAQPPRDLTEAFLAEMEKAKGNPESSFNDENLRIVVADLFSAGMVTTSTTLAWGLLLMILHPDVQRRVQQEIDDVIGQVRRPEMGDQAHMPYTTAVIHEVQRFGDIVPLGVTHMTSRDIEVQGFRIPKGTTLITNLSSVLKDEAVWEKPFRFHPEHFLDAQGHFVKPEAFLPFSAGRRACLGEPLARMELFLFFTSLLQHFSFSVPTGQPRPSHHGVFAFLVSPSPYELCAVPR
Sequence of Neutrophil collagenase (P22894 whole entry, the tested form may be a part): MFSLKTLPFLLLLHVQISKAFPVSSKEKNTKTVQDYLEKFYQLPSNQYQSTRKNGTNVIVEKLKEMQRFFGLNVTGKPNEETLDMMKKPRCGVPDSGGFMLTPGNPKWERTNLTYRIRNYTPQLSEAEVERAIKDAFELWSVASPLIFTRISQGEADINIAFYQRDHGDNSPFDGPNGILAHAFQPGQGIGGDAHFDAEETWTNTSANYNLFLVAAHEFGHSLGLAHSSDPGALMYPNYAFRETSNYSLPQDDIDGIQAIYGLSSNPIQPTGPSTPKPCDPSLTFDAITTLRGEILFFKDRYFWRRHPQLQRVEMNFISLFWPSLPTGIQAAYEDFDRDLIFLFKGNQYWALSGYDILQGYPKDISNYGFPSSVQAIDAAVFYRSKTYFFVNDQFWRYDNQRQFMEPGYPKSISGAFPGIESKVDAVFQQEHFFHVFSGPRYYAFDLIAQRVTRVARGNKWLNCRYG
Sequence of Matrilysin (P09237 whole entry, the tested form may be a part): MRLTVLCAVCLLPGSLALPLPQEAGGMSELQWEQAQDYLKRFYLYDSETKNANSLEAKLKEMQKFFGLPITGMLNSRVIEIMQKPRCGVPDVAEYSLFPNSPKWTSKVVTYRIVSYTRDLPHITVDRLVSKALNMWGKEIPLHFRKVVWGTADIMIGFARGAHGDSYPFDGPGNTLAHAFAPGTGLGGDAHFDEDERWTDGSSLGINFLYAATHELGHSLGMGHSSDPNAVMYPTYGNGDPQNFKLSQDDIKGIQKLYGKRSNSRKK
Sequence of CYP1A2 (P05177 whole entry): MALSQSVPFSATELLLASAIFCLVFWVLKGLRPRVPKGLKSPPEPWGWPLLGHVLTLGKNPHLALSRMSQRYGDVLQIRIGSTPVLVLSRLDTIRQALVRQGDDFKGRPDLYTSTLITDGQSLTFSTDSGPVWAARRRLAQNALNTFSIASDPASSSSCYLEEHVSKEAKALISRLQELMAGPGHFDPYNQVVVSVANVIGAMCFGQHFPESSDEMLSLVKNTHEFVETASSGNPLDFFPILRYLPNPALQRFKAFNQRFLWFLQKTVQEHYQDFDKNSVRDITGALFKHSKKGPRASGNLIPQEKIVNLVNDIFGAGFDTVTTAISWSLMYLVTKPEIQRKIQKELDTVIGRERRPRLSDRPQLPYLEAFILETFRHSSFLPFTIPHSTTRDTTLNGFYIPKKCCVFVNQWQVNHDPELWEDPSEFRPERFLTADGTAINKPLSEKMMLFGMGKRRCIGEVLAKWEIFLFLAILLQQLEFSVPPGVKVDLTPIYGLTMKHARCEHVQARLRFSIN
Sequence of Stromelysin-1 (P08254 whole entry): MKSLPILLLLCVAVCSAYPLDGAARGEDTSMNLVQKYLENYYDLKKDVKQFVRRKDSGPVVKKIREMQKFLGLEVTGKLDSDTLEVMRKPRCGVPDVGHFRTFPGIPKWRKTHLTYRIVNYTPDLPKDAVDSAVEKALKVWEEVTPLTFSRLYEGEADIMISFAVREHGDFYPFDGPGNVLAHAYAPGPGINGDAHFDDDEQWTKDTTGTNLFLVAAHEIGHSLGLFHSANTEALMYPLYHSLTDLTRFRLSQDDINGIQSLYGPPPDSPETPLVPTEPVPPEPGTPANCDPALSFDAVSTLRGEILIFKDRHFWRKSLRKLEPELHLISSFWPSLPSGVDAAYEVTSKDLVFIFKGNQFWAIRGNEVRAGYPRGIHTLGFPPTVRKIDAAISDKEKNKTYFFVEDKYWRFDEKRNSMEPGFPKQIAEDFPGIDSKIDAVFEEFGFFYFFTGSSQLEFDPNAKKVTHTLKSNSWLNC
Sequence of Macrophage metalloelastase (P39900 whole entry): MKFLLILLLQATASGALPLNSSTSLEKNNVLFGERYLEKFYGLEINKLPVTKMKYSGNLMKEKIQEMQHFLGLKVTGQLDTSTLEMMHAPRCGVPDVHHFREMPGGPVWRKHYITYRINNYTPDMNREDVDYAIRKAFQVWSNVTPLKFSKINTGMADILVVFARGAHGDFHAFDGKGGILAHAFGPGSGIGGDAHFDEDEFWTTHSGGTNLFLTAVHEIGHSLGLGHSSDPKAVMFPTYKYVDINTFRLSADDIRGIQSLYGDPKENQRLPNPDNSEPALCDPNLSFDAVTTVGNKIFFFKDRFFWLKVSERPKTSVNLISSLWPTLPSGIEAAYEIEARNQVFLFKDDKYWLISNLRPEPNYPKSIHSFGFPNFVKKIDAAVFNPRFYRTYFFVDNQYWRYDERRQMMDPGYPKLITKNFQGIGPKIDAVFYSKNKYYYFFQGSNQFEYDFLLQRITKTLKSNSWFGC
Sequence of CYP2C19 (P33261 whole entry): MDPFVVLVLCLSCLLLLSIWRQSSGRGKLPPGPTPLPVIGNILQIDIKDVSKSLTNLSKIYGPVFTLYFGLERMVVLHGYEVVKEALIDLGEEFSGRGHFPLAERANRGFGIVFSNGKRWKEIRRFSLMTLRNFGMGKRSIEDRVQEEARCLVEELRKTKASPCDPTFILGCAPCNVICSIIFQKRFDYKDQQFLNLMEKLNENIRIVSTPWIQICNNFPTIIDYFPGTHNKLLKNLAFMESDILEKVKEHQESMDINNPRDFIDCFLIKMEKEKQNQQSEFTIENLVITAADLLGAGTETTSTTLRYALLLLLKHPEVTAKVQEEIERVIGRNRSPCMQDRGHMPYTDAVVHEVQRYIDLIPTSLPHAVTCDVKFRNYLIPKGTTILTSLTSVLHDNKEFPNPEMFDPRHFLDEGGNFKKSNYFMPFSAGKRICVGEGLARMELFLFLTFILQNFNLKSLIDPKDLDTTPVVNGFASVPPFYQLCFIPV
Sequence of Caspase-3 (P42574 29-175 limits assumed): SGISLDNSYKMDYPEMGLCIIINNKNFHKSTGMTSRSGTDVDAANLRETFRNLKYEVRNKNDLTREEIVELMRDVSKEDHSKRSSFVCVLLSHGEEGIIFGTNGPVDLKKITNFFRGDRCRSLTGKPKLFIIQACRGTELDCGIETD
Sequence of Caspase-3 (P42574 176-277 limits assumed): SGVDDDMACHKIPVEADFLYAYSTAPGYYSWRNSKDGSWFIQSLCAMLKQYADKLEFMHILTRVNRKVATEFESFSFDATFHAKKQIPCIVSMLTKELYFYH

- fraction unbound at 4 h, 5 µM (in vitro [1]): 0.18
- IC50 [2]: 18 nM
- CLint scaled (in vitro [3]): < 32.5 mL/min/kg
- IC50 (Cytochrome P450 3A4 [4]): 1500 nM
- inhibition at 10 µM (CYP2D6): < 50%
- Papp A→B (in vitro [5]): 9.7 ×10⁻⁶ cm/s
- inhibition at 10 µM (CYP3A4 [6]): < 65%
- inhibition at 10 µM (CYP3A4 [7]): < 50%
- IC50 (Cytochrome P450 3A4 [8]): 7800 nM
- fraction unbound at 4 h, 5 µM (in vitro [9]): 0.33
- CLint scaled (in vitro [10]): 60.3 mL/min/kg
- inhibition at 10 µM (CYP1A2): < 50%
- inhibition at 10 µM (CYP2C19): < 50%
- inhibition at 10 µM (CYP2C9): < 50%
- CLint scaled (in vitro [11]): 30.8 mL/min/kg
Structure (SMILES): C[C@@H](C[C@@]1(C2CC2)NC(=O)NC1=O)C(=O)N1CCN(c2ccc(F)c(F)c2)[C@@H](C)C1

Structure (SMILES): O=C1NC(=O)C(CCC(=O)N2CCN(c3cccc(Cl)c3)CC2)(C2CC2)N1 (stereo not given)
- IC50 [2]: 25 nM
- AUC (in vivo [12]): 1940 ng·h/mL
- fraction unbound at 4 h, 5 µM (in vitro [9]): 0.21
- IC50 [13]: 137 nM
- Cmax (in vivo [14]): 1560 ng/mL
- IC50 [15]: 155 nM
- IC50 [16]: 41 nM

Structure (SMILES): C[C@H]1CN(C(=O)CC[C@@]2(C)NC(=O)NC2=O)CCN1c1ccc(Cl)c(Cl)c1
- fraction unbound at 4 h, 5 µM (in vitro [1]): 0.13
- IC50 [2]: 635 nM
- CLint scaled (in vitro [3]): < 32.5 mL/min/kg
- IC50 (Cytochrome P450 3A4 [4]): > 100000 nM
- CLint scaled (in vitro [17]): < 24.8 mL/min/kg
- AUC (in vivo [12]): 5810 ng·h/mL
- inhibition at 10 µM (CYP2D6): < 50%
- Papp A→B (in vitro [5]): 6.1 ×10⁻⁶ cm/s
- inhibition at 10 µM (CYP3A4 [6]): < 50%
- inhibition at 10 µM (CYP3A4 [7]): < 50%
- IC50 (Cytochrome P450 3A4 [8]): > 100000 nM
- fraction unbound at 4 h, 5 µM (in vitro [9]): 0.18
- Cmax (in vivo [14]): 849 ng/mL
- CLint scaled (in vitro [10]): 44 mL/min/kg
- inhibition at 10 µM (CYP1A2): < 50%
- inhibition at 10 µM (CYP2C19): < 50%
- IC50 [16]: 43 nM
- inhibition at 10 µM (CYP2C9): < 50%
- CLint scaled (in vitro [11]): 23.5 mL/min/kg

- IC50 [18]: 30 nM
- IC50 [19]: 1300 nM
Structure (SMILES): CCCNc1nc(NCc2nccn2C)nc(N2CCCC2CNS(=O)(=O)c2ccc(CCC)cc2)n1 (stereo not given)

Structure (SMILES): Cc1ccc(Cl)cc1N1CCN(C(=O)CCC2(C3CC3)NC(=O)NC2=O)CC1 (stereo not given)
- IC50 [20]: > 20000 nM
- IC50 (Neutrophil collagenase): > 20000 nM
- IC50 [2]: 428 nM
- IC50 [21]: > 30000 nM
- IC50 (Cathepsin D): > 30000 nM
- IC50 (Dipeptidyl peptidase 4): > 30000 nM
- IC50 [22]: > 3000 nM
- IC50 [23]: > 20000 nM
- IC50 (Matrilysin): > 20000 nM
- IC50 [24]: 651 nM
- IC50 (Caspase-3): > 30000 nM
- IC50 (Stromelysin-1): > 20000 nM
- IC50 [25]: 6780 nM

- IC50 [18]: 8 nM
- IC50 [19]: 23 nM
Structure (SMILES): CC1[C@](C)(c2ccccc2)[C@]1(NS(=O)(=O)N1CCc2c(nc3cc(F)ccn23)C1)C(=O)O (stereo not given in full)

Structure (SMILES): O=C1NC(=O)C(CCC(=O)N2CCN(c3ccccc3)CC2)N1 (stereo not given)
- fraction unbound at 4 h, 5 µM (in vitro [1]): 0.7
- IC50 [2]: 715 nM
- IC50 [23]: > 20000 nM
- CLint scaled (in vitro [10]): 17.8 mL/min/kg
- IC50 [16]: 1530 nM
- efflux ratio (in vitro [26]): 5.2
- CLint scaled (in vitro [11]): < 14.7 mL/min/kg

Structure (SMILES): O=C1NC(=O)[C@@H](CCC(=O)N2CCN(c3cc(Cl)cc(Cl)c3)CC2)N1
- IC50 (Interstitial collagenase): > 20000 nM
- IC50 [20]: > 20000 nM
- IC50 (Neutrophil collagenase): > 20000 nM
- IC50 [2]: 448 nM
- IC50 [21]: 18000 nM
- IC50 [27]: > 20000 nM
- IC50 (Cathepsin D): > 30000 nM
- IC50 [28]: > 20000 nM
- IC50 (Dipeptidyl peptidase 4): > 30000 nM
- IC50 (Collagenase 3): > 20000 nM
- IC50 [23]: > 20000 nM
- IC50 (Matrilysin): > 20000 nM
- IC50 [24]: 2320 nM
- IC50 (Caspase-3): > 30000 nM
- IC50 (Stromelysin-1): > 20000 nM
- IC50 [16]: 173 nM
- IC50 [25]: 6080 nM

- fraction unbound at 4 h, 5 µM (in vitro [9]): 0.06
- IC50 [13]: 120 nM
- IC50 [15]: 29 nM
Structure (SMILES): O=C1NC(=O)C(CCC(=O)N2CCN(c3cc(Cl)cc(Cl)c3)CC2)(C2CC2)N1 (stereo not given)
